Holding throughout (assay): NCI-60 cell line screen, 48 h
For assay [1], the system named is A498 renal.
Assay [2] relates to BT-549 breast.
The test system of assay [3] is COLO 205 colon.
Assay [4] deals with HCT-15 colon.
Assay [5] deals with HOP-92 NSCLC.
Assay [6] deals with HS 578T breast.
Assay [7] deals with HT29 colon.
Assay [8] concerns IGROV1 ovarian.
For assay [9], the system named is MOLT-4 leukemia.
Assay [10] relates to NCI-H23 lung.
In assay [11] the test system is OVCAR-4 ovarian.
For assay [12], the system named is RPMI-8226 leukemia.
For assay [13], the system named is SK-MEL-2 melanoma.
The subject of assay [14] is SK-MEL-5 melanoma.
Assay [15] relates to SK-OV-3 ovarian.
In assay [16] the test system is SN12C renal.
Assay [17] relates to SR leukemia.
The test system of assay [18] is UACC-257 melanoma.
Assay [19] relates to UACC-62 melanoma.

Molecules are shown by their SMILES.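 Protocol summary: plate cells (96-well), add compound at 5 concentrations, incubate 48 h, interpolate endpoints linearly. Definition used: TGI = concentration required for complete inhibition of growth.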 Where a SMILES comes first, the peptide text is derived from it. The star is where a group is joined. Boc = CC(C)(C)OC(=O)*

The text below walks through data of PubChem BioAssay (NCI).

In the case of `O=C(O)c1cc(N(Cc2ccccc2O)Cc2cc(O)ccc2O)ccc1O`, the TGI in assay [1], in [2], in assay [3], in assay [4], in [5] and in assay [6] was more than 100 µM throughout. In addition, the TGI in assay [7], in assay [8], in assay [9], in assay [10], in assay [11] and in assay [12] was more than 100 µM throughout. For the same molecule, the TGI in [13], in [14], in [15], in assay [16], in [17] and in [18] was more than 100 µM throughout. The molecule also registered a TGI in assay [19] of more than 100 µM.

Take `CN(CC#N)C(=O)Cc1ccc([N+](=O)[O-])cc1`: the TGI in assay [1], in assay [2], in assay [3], in assay [4], in [6] and in assay [7] was more than 10 µM each time. Besides, the TGI in assay [8], in [9], in assay [10], in assay [11], in [12] and in assay [13] was more than 10 µM in each case. In addition, the TGI in assay [14], in assay [15], in [16], in assay [17], in [18] and in [19] was more than 10 µM throughout.

For the molecule `CN(NC(=O)c1cccs1)C1=NCCN1`, the TGI in assay [1], in assay [2], in assay [3], in assay [4], in assay [5] and in assay [6] was more than 100 µM throughout. Also, the TGI in [7], in assay [8], in assay [9], in assay [10], in assay [11] and in [12] was more than 100 µM each time. The TGI in [13], in [14], in [15], in assay [17], in assay [18] and in [19] was more than 100 µM each time.

Consider `Cc1cc(C)c2c(c1)C(=O)C1(C2)Cc2c(ccc(C)c2C)C1=O` (stereo not drawn), for which the TGI in assay [1], in [2], in [3], in assay [4], in [5] and in assay [6] was more than 100 µM each time. Further, the TGI in assay [8], in assay [9], in [11], in assay [12], in assay [13] and in [14] was more than 100 µM in each case. Further, the TGI in assay [16], in [17], in assay [18] and in assay [19] was more than 100 µM in each case.

Turning to `CCOC(=O)C(CC(C)C)NC(=O)C(Cc1ccccc1)NC(=O)CNC(=O)OC(C)(C)C` (stereo not drawn) (Boc-Gly-Phe-Leu-OEt; configuration not given here), the TGI was 49.6 µM in [1]; 50.9 µM in [2]; 35.8 µM in assay [4]; 64 µM in [5]; 96 µM in assay [6]; 32.4 µM in [7]. For the same molecule, the TGI worked out at 49 µM in assay [8]; 30.6 µM in [9]; 71.1 µM in [11]; 45.8 µM in assay [12]; 99.4 µM in [13]; 36.8 µM in assay [14]. The TGI in assay [15] worked out at 50.9 µM; in assay [16], 35.4 µM; in [17], 36.5 µM; in assay [18], 36.3 µM; in [19], 35.9 µM.

Regarding `COc1ccc2[nH]c3c(C)c4cnccc4c(C)c3c2c1`, the TGI in assay [2] is more than 10 µM; in [3], 4.44 µM; in assay [4] it was 3.4 µM; in [5], more than 10 µM; in assay [6] it was more than 10 µM; in assay [7] it was 3.41 µM. The TGI in assay [8] was more than 10 µM; in [9], more than 10 µM; in [10], more than 10 µM; in assay [11], 5.17 µM; in [12] it was 7.11 µM; in assay [13], more than 10 µM. Moreover, the TGI in assay [14], in [15], in assay [16], in [17], in assay [18] and in [19] was more than 10 µM each time.

With `CCOC(=O)CCc1c(C)[nH]c2c(C)c3c([nH]c4ccc(Cl)cc43)c(C)c2c1=O`, the TGI in assay [1] turned out to be 33 µM; in assay [2] it was 40.3 µM; in [3] it was 89 µM; in [4], 54.5 µM; in assay [5] it was 67.1 µM; in assay [6], 77.5 µM. The TGI in assay [7] is 18.6 µM; in assay [8], 26.2 µM; in assay [9] it was more than 100 µM; in assay [10], 61.7 µM; in assay [11] it was 41.4 µM; in assay [13], 14.4 µM. The results for the TGI in assay [14], in assay [17] and in assay [18] were more than 100 µM, more than 100 µM and 30.5 µM, respectively.

For `CCOC(=O)CCC(NC(=O)c1ccc(Oc2nc3ccccc3nc2C(=O)OCC)cc1)C(=O)OCC` (stereo not drawn), the TGI in assay [2], in [3], in assay [4], in [5], in assay [6] and in assay [7] was more than 100 µM each time. Further, the TGI in assay [8], in assay [9], in [10], in assay [11], in [12] and in assay [13] was more than 100 µM each time. Also, the TGI in assay [14], in assay [16], in assay [17], in assay [18] and in assay [19] was more than 100 µM in each case.
